Assay results: patent publication US20120215126A1, “DETERMINING DYNAMIC AIRWAY RESPONSE IN A SUBJECT” (priority 2009, published 2012)

Tested on: subject's respiratory system
Assay: acoustic transmission (transfer function magnitude) monitoring of a subject's broncho-dynamic response
Assay type: in vivo
Conditions: FIG. 11, subject with exacerbation of asthma; combined treatment with Salbutamol and Ipratropium Bromide, treatment and recovery phase
Procedure: This involves introducing a sound signal having known characteristics into the airway of a subject in a step 101. The signal propagates through the lung and chest tissues to the chest wall and is detected in steps 102, 105 using one or more transducers attached to the subject at one or more locations on the thoracic surface. Preferably, baseline acoustic transmission is determined in a step 103. In a step 106, changes in the detected signal are monitored during and after administration of a broncho-effector (step 104). These changes are indicative the subject's airway response (i.e. changes in airway patency due do constriction, dilation or mucus production). The test is terminated in step 107. […] By positioning the reference transducer here, the transfer function calculated by processor 205 represents the acoustic transmission of subject's respiratory system including the lower airways, alveolar sacs, thoracic tissues etc., but excludes the effects of the apparatus used to introduce the sound (e.g. loudspeaker, tubing) and the upper airways. […] The introduced sound signal is transmitted through the subject's airways, lung parenchyma and chest wall tissues such as muscle, ribs, skin etc. and in a step 102, is detected at one or more locations on the thoracic surface. […]

CC(C)[N+]1(C)[C@@H]2CC[C@H]1CC(OC(=O)C(CO)c1ccccc1)C2.[Br-] (some centres unmarked) [Ipratropium Bromide]
airway patency: gradual improvement

CC(C)(C)NCC(O)c1ccc(O)c(CO)c1 (centres unmarked) [Salbutamol]
airway patency: gradual improvement
